# Experimental data as given in patent EP1370276B1, “INTERCELLULAR COMMUNICATION FACILITATING COMPOUNDS AND THEIR MEDICAL USE” (Zealand Pharma A/S, priority 2001, dated 2002).
# Where a SMILES comes first, the peptide text is derived from it. [ ]: non-standard residue; d: D form. The star is where a group is joined. dTyr(3,5-I2) = N[C@H](Cc1cc(I)c(O)c(I)c1)C(=O)O; Dnp = O=[N+]([O-])c1ccc(*)c([N+](=O)[O-])c1; X1 = [N-]=[N+]=Nc1cc(O)c(C(=O)*)cc1I; Hyp = O=C(O)[C@@H]1C[C@@H](O)CN1; dHyp = O=C(O)[C@H]1C[C@H](O)CN1; Sar = CNCC(=O)O
# How the values were obtained:
# [1] = tested on: calcium-induced arrythmias; experiment: Calcium-induced arrhythmia model in mice (time to 2nd degree AV-block); type: in vivo; parameters: CaCl2 mice Score: scale not given here; conditions: for CaCl2 mice Score / CaCl2 mice In vivo, %: calcium chloride induced arrythmia model; for CaCl2 mice Score: no key for the score; for In vivo activity: maximal effect, increase in time until 2nd degree AV-block relative to vehicle, i.v.
# Method: The antiarrhythmic effects of compounds of this invention were tested in an in vivo model of calcium-induced arrythmias according to the model of Lynch et al. ^[37]. […]. Commercial solutions of hypnorm and midazolam were diluted 1:1 in distilled water and one part diluted Hypnorm® is mixed with one part diluted midazolam.
# The anaesthesia was induced by s.c. administration in a dose of […]. An i.v. cannula was inserted into the tail vein. The lead II ECG signal was recorded continuously by positioning of a stainless steel ECG electrodes on the right forelimb and on the left hind limb. The ground electrode was placed on the right hind limb. The signal was amplified (x 5.000-10.000) and filtered (0.1-150 Hz) via a Hugo Sachs Electronic model 689 ECG module. The analogue signal was digitised via a 12 bit data acquisition board (Data Translation model DT321) and sampled at 1000 Hz using the Notocord HEM 3.1 software for Windows NT. After a 10-min equilibration period, the test sample of drug was injected into the tail vein. Mice pre-treated with vehicle were tested as a measure of the control level in untreated animals. The injection volume was 100 µl in all experiments. Infusion of CaCl2 (30 mg/ml, 0.1 ml/min ≈ 100 mg/kg/min (calciumchlorid-2-hydrat, Riedel-de Haën, Germany)) was started 3 min after i.v. administration of drug or vehicle. The time lag to onset of 2nd degree AV-block was determined as the time from the start of CaCl2 infusion until the first arrhythmic event occured. An event of 2nd degree AV-block was defined as intermittent failure of the AV conduction characterised by a P-wave without the concomitant QRS complex.
# Responses were expressed relative to the time until 2nd degree AV-block occurred in vehicle treated mice.
# [2] = tested on: CHO cells; experiment: In situ binding of [125I]AAP10 on intact CHO cells; conditions: overnight at 4° C
# Method: CHO cells are seeded in 24-multi well dishes in a density of 7,900 cells/cm^2 (∼ 15,000 cells/well) and grown for 3 Days In Vitro (DIV) in 1 ml/well of F-12K Nutrient Mixture supplemented with 10% Foetal Calf Serum (FCS) and 1000 units penicillin/1000 µg streptomycin (pen/strep) in an atmosphere of 5% CO2 and 100% humidity at 37° C. The cell density has at that time increased to 295,000 cells/cm^2 (152 pgprot/cell ∼ 85 µgprot/well).
# On the day of analysis cells are removed from the incubator and each well is washed twice with, depending on the experiment, either 2 ml pre-warmed (37 °C) or ice-cold (0 °C) D-PBS to remove serum. It is important to keep the period to a minimum during which cells are left without physiological solutions to avoid that they dry out during washing procedures. The cold washed cells are used directly for binding assays while the warm washed cells are used for experiments with glucose and oxygen deprivation.
# The in situ binding is performed by a modified protocol based on the description by Koenig. […] Cells incubate overnight at 4° C to reach equilibrium. Each well, one at the time, is then rinsed rapidly with 2 x 1 ml D-PBS and left to dry.
# 0.25 ml of 0.5 % Triton-X-100 (v/v) is added to each well and cells left for at least 1 h to solubilize. The extract is transferred to counting vials, the wells rinsed with 0.25 ml water and the rinse extract added to the corresponding vials. The vials are counted in a γ-counter. Table 3. In situ binding, IC50 (nM).
# [3] = tested on: cAMP formation in CHO cells; experiment: Inhibition of forskoline stimulated cAMP formation in CHO cells; type: cell-based; conditions: 10 µM forskoline, 20 min, cells pre-treated with glucose and oxygen deprivation
# Method: CHO cells are seeded in 96-well microtiter plates in a density of 6,000 cells/cm^2 (∼ 2,000 cells/well) and grown for 4 days in vitro in 200 µl/well of growth media as described in the previous section.
# On the day of analysis cells are removed from the incubator and washed twice with 200 µl pre-warmed (37°C) D-PBS (pH 7.2) to remove serum. Cells are incubated for 10 min in glucose free D-PBS and an N2-atmosphere as described in the previous section.
# CHO cells are incubated at 37° C in D-PBS (pH 7.2) containing 6 mM glucose, 2.0 mM IBMX (phospodiesterase blocker), 10 µM forskoline (stimulates cAMP formation) and increasing concentrations of test peptide. The reaction is stopped after 20 min by addition of 20 µl 0.5 M HCl and left for at least 20 min at room temperature.
# The content of cAMP is analysed by mixing 20 µl of the acid cell extract into FlashPlate™ wells (NEN assay kit SMP001) containing 180 µl [^12SI]cAMP tracer solution. FlashPlates™ are incubated overnight at 4° C and plate bound radioactivity counted in TopCount (Packard Instrument). Data are calculated as described in the previous section.
# [4] = molecular target: murine heart tissue preparations; experiment: Displacement of [125I]AAP10 from murine heart tissue preparations; type: binding, mice; conditions: displacement of 0.8 nM [125I]AAP10, filtrate; read-out: Filtrate IC50
# Method: Hearts are excised from mice (Balb/cJ, 20 g), rinsed twice in ice-cold (0°C) 0.32 M sucrose and homogenized on ice in 10 volumes of sucrose with an Ultra Turrax homogeniser (1000 rpm) for 2 minutes. The homogenate is centrifuged at 1000 gmea" for 10 minutes at 4° C and the supernatant collected and filtrated through 4 layers of gauze. The filtrate is then centrifuged at 50,000 gmean for 45 min at 4° C and the pellet resuspended in 10 volorg. wet weight ice-cold distilled water and incubated for 60 min at 0° C and re-centrifuged at 50,000 gmean at 45 min at 4° C. The resulting pellet is resuspended in 2 vol org. wet weight of PBS (Phosphate Buffered Saline) and stored at - 80° C until use.
Compound,CaCl2 mice Score [1],"CaCl2 mice In vivo, % [1]",also measured
CC(=O)NCC(=O)N[C@@H](CC(=O)O)C(=O)N[C@@H](CC(N)=O)C(=O)N[C@@H](Cc1ccc(O)cc1)C(N)=O [Ac-G-D-N-Y-NH2] (Ac-GDNY-NH2),1,–,–
H-GAG-DHypAY-NH2,1,29 +/- 9%,–
"H-GP[Hyp]GAG-OH [AAP, reference compound]",2,–,IC50 [2]: 0.8 nM; EC50 [3]: 53 nM; IC50 [4]: 1.2 nM; In vivo activity [1]: ++ (++ refers to 30-50% increase in time until arrhythmia)
C[C@H](NC(=O)CN)C(=O)N[C@@H](CC(N)=O)C(=O)N[C@@H](Cc1ccc(O)cc1)C(N)=O [H-GANY-NH2] (H-GANY-NH2),1,–,–
"CC(=O)N[C@H](Cc1cc(I)c(O)c(I)c1)C(=O)N1CCC[C@@H]1C(=O)N1C[C@@H](O)C[C@@H]1C(=O)NCC(=O)N[C@H](C)C(=O)NCC(N)=O [Compound 24] (Ac-[dTyr(3,5-I2)][dP][dHyp]G[dA]G-NH2)",–,–,IC50 [2]: 65 nM
H-[D-Hyp^4]AAP-10-NH2,1,28 +/- 10%,–
H-GAGGPY-NH2 [H-GAGGPY-NH2],2,–,–
H-DY-DN-G-NH2,1,–,–
C[C@H](NC(=O)CN)C(=O)NCC(=O)N1C[C@H](O)C[C@H]1C(=O)N1CCC[C@H]1C(=O)N[C@@H](Cc1ccc(O)cc1)C(=O)N[C@@H](CC(N)=O)C(N)=O [H-AAP-10-Asn-NH2] (H-GAG[Hyp]PYN-NH2),2,–,–
Cyclo(retro-AAP-10-Asn),2,59 +/- 9%,–
NCC(=O)NCC(=O)N[C@@H](Cc1ccc(O)cc1)C(N)=O [H-GGY-NH2] (H-Gly-Gly-Tyr-NH2),2,–,–
CC(=O)N[C@@H](Cc1ccc(O)cc1)C(=O)N[C@H](CC(N)=O)C(=O)NCC(=O)O [Ac-Y-DN-G-OH] (Ac-Tyr-[dN]-Gly-OH),2,–,–
NCC(=O)N[C@@H](CCCCNc1ccc([N+](=O)[O-])cc1[N+](=O)[O-])C(=O)N[C@@H](Cc1ccc(O)cc1)C(N)=O [H-GK(DNP)Y-NH2] (H-Gly-Lys(Dnp)-Tyr-NH2),1,–,–
"C[C@H](NC(=O)CN)C(=O)NCC(=O)N1CCC[C@@H]1C(=O)N[C@@H](C)C(=O)N[C@@H](Cc1ccc(O)cc1)C(N)=O [H-[D-Pro^4, Ala^5]AAP-10-NH2] (H-GAG[dP]AY-NH2)",1,29 +/- 12%,–
H-AAP-10-K6-OH,3,64 +/- 10%,–
CF3C(O)-AAP10-NH2,3,–,–
NC(=O)CNC(=O)[C@H](CC(N)=O)NC(=O)[C@@H](N)Cc1ccc(O)cc1 [H-YNG-NH2] (H-Tyr-Asn-Gly-NH2),2,–,–

Compound,CaCl2 mice Score [1],"CaCl2 mice In vivo, % [1]",also measured
NCC(=O)N[C@H](CC(N)=O)C(=O)N[C@@H](Cc1ccc(O)cc1)C(N)=O [H-G-DN-Y-NH2] (H-Gly-[dN]-Tyr-NH2),2,–,–
C[C@H](NC(=O)CN)C(=O)N(C)CC(=O)N1C[C@H](O)C[C@H]1C(=O)N1CCC[C@H]1C(=O)N[C@@H](Cc1ccc(O)cc1)C(N)=O [H-GA-Sar-Hyp-PY-NH2] (H-GA[Sar][Hyp]PY-NH2),2,46 +/- 11%,–
NC(=O)C[C@@H](NC(=O)[C@@H](N)Cc1ccc(O)cc1)C(=O)NCC(=O)O [H-Y-DN-G-OH] (H-Tyr-[dN]-Gly-OH),2,–,–
"CC(=O)N[C@@H](Cc1ccc(O)cc1)C(=O)N1CCC[C@H]1C(=O)N1C[C@H](O)C[C@H]1C(=O)NCC(=O)N[C@@H](C)C(=O)NCC(=O)O [Compound 1, Ac-Tyr-Pro-4Hyp-Gly-Ala-Gly-OH] (Ac-YP[Hyp]GAG-OH)",1,–,–
AcGNY,2,46 +/- 9%,–
[Pro^4]AAP10-NH2,3,–,–
C[C@H](NC(=O)CNC(=O)[C@@H]1C[C@@H](O)CN1C(=O)[C@@H]1CCCN1C(=O)c1cc(I)c(N=[N+]=[N-])cc1O)C(=O)NCC(N)=O [Compound 32] (X1-P[Hyp]GAG-NH2),–,–,IC50 [2]: 0.5 nM
HPP-PHypGAGKKKKKK-OH,3,80 +/- 17%,–
CNCC(=O)N[C@@H](C)C(=O)N(C)CC(=O)N1C[C@H](O)C[C@H]1C(=O)N1CCC[C@H]1C(=O)N[C@@H](Cc1ccc(O)cc1)C(N)=O [H-Sar-A-Sar-Hyp-PY-NH2] (H-[Sar]A[Sar][Hyp]PY-NH2),1,24 +/- 7%,–
H-GAG-DHyp-DProY-NH2,2,49 +/- 6%,–
GNY,2,58 +/- 10%,–
HPP-PHypGAGKKKKKK-NH2,1,21 +/- 17%,–
CC(=O)N[C@@H](Cc1ccc(O)cc1)C(=O)N[C@@H](CC(=O)O)C(=O)N[C@@H](CC(N)=O)C(=O)NCC(N)=O [Ac-Y-D-N-G-NH2] (Ac-YDNG-NH2),1,–,–
C[C@H](NC(=O)CNC(=O)[C@H](CC(N)=O)NC(=O)[C@H](Cc1ccc(O)cc1)NC(=O)[C@@H]1CCCN1C(=O)[C@@H]1C[C@@H](O)CN1)C(=O)NCC(N)=O [H-HypPYNGAG-NH2] (H-[Hyp]PYNGAG-NH2),2,34 +/- 10%,–
des-Hyp^4-[Asn^5]AAP-10-NH2,2,53 +/- 15%,–
"3-(4-hyd roxyphenyl)propionyl-Pro-Hyp-Gly-Ala-Gly-OH [HP5, reference compound]",2,–,In vivo activity [1]: ++ (++ refers to 30-50% increase in time until arrhythmia)
